Data: patent US11065231B2, “Compounds and methods for the targeted degradation of interleukin-1 receptor- associated kinase 4 polypeptides” (Arvinas Operations, Inc., priority 2017, dated 2021)
Like-named read-outs stand apart in the source and are kept apart here.

What was measured:
[1] = target: T1, IRAK4 (Homo sapiens (Human), UniProt Q9NWZ3); assay: Western blot assay for assessing degradation of IRAK4 in MCF7 cells; type: cell-based; details: for Dmax: read-out: IRAK4 Dmax (%)
Experimental: Western Blot Assay for Assessing Degradation of IRAK4.
MCF7 cells, purchased from ATCC (Manassas, Va.), were used at a passage range of 2-19. Cells were seeded at 50% confluency in 96-well plates at 180 μl/well in cell media (Dulbecco's Modified Eagle medium/nutrient F-12 Ham-10% Fetal Bovine Serum) and incubated overnight. The next morning, compounds were serially diluted and added (20 μl into 180 μl media) at a final DMSO concentration of 0.1%. Cells were rinsed with cell media and replaced with compounds in media, followed by incubation overnight. After a 24 hour incubation with compound, cell were harvested (90-100% confluent at harvest). Cells were then washed once with 100 μl of Dulbecco's hosphate-buffered saline and then lysed with 40 μl of lysis buffer (1×RIPA+HALT protease inhibitor+HALT phosphatase inhibitor) on ice for 10 minutes. Lysates were then cleaned by filtration in 1.2 µm filter plates followed by western blotting. For each sample, 30 μl of lysate were added to 10 μl of 4×LDS sample buffer, then denatured at 95° C. for 5 minutes in the thermal cycler and placed on ice. Fifteen μL of each sample were then loaded on 4-15% Tris/Glycine gels and run for 25 minutes at 250 (constant) volts in 1× Tris/Glycine buffer. Protein was transferred from gels to nitrocellulose using a BioRad Turbo dry-transfer unit with the Turbo/midi default program. All blots were rinsed with ddH2O and blocked for 1 hour at room temperature in 5% bovine serum albumin (BSA) in tris-buffered saline-Tween 20 (TBS-T) (0.1%) on rocker. Blots were exposed to primary antibody in 5% BSA in TBS-T (0.1%) overnight at 4° C. on rocker. Primary antibodies, diluted 1:1000 in […], were as follows: anti-IRAK4 (cat. #: ab119942, Abcam, Cambridge, Mass.), anti-IRAK1 (cat. #: CST 4504S, Cell Signaling Technology, Danvers, Mass.), and anti-Beta-actin (Cat. #: ab8227, Abcam, Cambridge, Mass.). Blots were then washed with TBS-T (0.1%) three times for 5 minutes on a rocker at room temperature. Secondary antibody (1:18,000 anti-rabbit-HRP and/or anti-mouse-HRP in 5% BSA in TBST (0.1%) was then added, and blots incubated at room temperature rocker for 1 hour. Blots were washed 3 times in TBS-T (0.1%) for 5 minutes at room temperature on the rocker. Signal was developed with Femto Max substrate for 5 minutes and blots read on a ChemiDoc. Percent degradation was assessed by comparing IRAK4 signal in compound vs. DMSO treated lysates.

[2] = target: T1, IRAK4; assay: Biochemical Z'-Lyte FRET assay for IRAK4 kinase inhibition; details: 2 nM enzyme, 1 mM ATP, 2 μM substrate
Experimental: Biochemical Assay for IRAK4 Kinase Inhibition.
A Z′-Lyte assay based on a fluorescence resonance energy transfer (FRET) readout was developed for measuring IRAK4-dependent phosphorylation of a FRET-peptide substrate as described by Thermo Fisher Scientific (Grand Island, N.Y.). At a starting concentration of 1.5 mM, the identified compounds were serially diluted with 100% dimethyl sulfoxide (DMSO) in 3-fold increments, into Greiner bio-one 96-well plates (cat. #: 650201, Greiner bio-one, Monroe, N.C.). Compounds were then transferred to intermediate Greiner bio-one 96-well plates and diluted 10-fold with Kinase assay buffer (25 mM HEPES, pH 7.5, 10 mM MgCl2, 10 mM MnCl2, 1 mM EGTA, and 0.01% Brij-35, 2 mM DTT). Three μL of the serially diluted compounds were then transferred in duplicate to low-volume 384-well black proxiplates (cat. #: 6008269; Perkin Elmer, Akron, Ohio), to give duplicate twelve-point concentration curves. Six μl of a 2.5× solution of IRAK4 enzyme (cat #: 40064, BPS Bioscience, San Diego, Calif.) in kinase buffer was added to each well, followed by a 10 minutes pre-incubation step. Reactions were initiated by adding 6 μl of a 2.5× substrate mix of ATP and Z′-Lyte Ser/Thr 7 peptide (cat. #: PV3180, Thermo Fisher Scientific, Grand Island, N.Y.) and proceeded at room temperature for 1 hour. The final concentration of key reagents in the 15 uL kinase reactions were 2 μM substrate, 2 nM enzyme, and 1 mM ATP, with dose responses starting at 30 μM compound. At the end of the kinase reactions, 5 μl of developing solution (as instructed in for cat. #: PV3180, Thermo Fisher Scientific, Grand Island, N.Y.) was added to each well and incubated at room temperature for 1 hour. All wells were read on an Envision 2105 Multilabel fluorescence plate reader (Perkin Elmer, Waltham, Mass.) at 400 nm excitation and 460 nm/530 nm emission. Plus and minus 100% inhibition controls were used to calculate percent inhibition and IC50 curves were generated using Graphpad Prism (La Jolla, Calif.).

[3] = Table 5, IRAK4 degradation, 24 hour incubation, read-out: IRAK4 DC50
[4] = Table 5, IRAK4 degradation, 24 hour incubation

T1 sequence (Q9NWZ3 whole entry): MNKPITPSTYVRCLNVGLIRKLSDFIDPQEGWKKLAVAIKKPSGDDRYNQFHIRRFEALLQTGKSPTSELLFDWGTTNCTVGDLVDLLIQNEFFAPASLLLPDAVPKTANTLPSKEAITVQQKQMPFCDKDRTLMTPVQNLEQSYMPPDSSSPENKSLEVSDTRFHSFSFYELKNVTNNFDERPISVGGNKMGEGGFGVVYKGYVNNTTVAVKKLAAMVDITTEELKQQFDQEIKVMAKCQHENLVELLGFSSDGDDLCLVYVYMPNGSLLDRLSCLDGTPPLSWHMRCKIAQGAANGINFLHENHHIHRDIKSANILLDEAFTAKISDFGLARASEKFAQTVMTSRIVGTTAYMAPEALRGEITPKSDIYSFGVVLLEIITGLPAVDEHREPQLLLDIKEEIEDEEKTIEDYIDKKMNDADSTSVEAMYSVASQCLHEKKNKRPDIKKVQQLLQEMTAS

SMILES	DC50 [1, 3] [nM]	IC50 [2] [nM]	DC50 ([1]; Table 1, 24 hours, read-out: IRAK4 by western DC50) [nM]	DC50 ([1]; western blot, 24 hour incubation, read-out: DC50 (IRAK4 degradation)) [nM]	Dmax [1, 4] [%]
Cc1ncsc1-c1ccc(CNC(=O)[C@@H]2C[C@@H](O)CN2C(=O)[C@@H](NC(=O)COCCOCCOCCOCCN2CCN(Cc3ccc4c(c3)nc(NC(=O)c3cccc(C(F)(F)F)c3)n4C3CCC(CO)CC3)CC2)C(C)(C)C)cc1 (mixture of isomers) [compound 14, (2S,4R)-1-((S)-2-(tert-butyl)-17-(4-((1-((1SR,4SR)-4-(hydroxymethyl)cyclohexyl)-2-(3-(trifluoromethyl)benzamido)-1H-benzo[d]imidazol-5-yl)methyl)piperazin-1-yl)-4-oxo-6,9,12-tetraoxa-3-azatetradecanoyl)-4-hydroxy-N-(4-(4-methylthiazol-5-yl)benzyl)pyrrolidine-2-carboxamide]	≥ 1000	< 30	–	–	–
O=C1CCC(N2C(=O)c3ccc(OCCN4CCN(Cc5ccc6c(c5)nc(NC(=O)c5cccc(C(F)(F)F)c5)n6[C@H]5CC[C@@H](CO)CC5)CC4)cc3C2=O)C(=O)N1 (some centres unmarked) [compound 1, N-(5-((4-(2-((2-(2,6-dioxopiperidin-3-yl)-1,3-dioxoisoindolin-5-yl)oxy)ethyl)piperazin-1-yl)methyl)-1-((1s,4s)-4-(hydroxymethyl)cyclohexyl)-1H-benzo[d]imidazol-2-yl)-3-(trifluoromethyl)benzamide]	100 to 300	< 30	–	–	–
O=C1CCC(N2C(=O)c3ccc(OCCOCCN4CCN(Cc5ccc6c(c5)nc(NC(=O)c5cccc(C(F)(F)F)c5)n6[C@H]5CC[C@@H](CO)CC5)CC4)cc3C2=O)C(=O)N1 (some centres unmarked) [compound 2, N-(5-((4-(2-(2-((2-(2,6-dioxopiperidin-3-yl)-1,3-dioxoisoindolin-5-yl)oxy)ethoxy)ethyl)piperazin-1-yl)methyl)-1-((1s,4s)-4-(hydroxymethyl)cyclohexyl)-1H-benzo[d]imidazol-2-yl)-3-(trifluoromethyl)benzamide]	< 30	< 30	10	9.7	–
O=C1CCC(N2Cc3cc(OCCOCCN4CCN(Cc5ccc6c(c5)nc(NC(=O)c5cccc(C(F)(F)F)c5)n6[C@H]5CC[C@@H](CO)CC5)CC4)ccc3C2=O)C(=O)N1 (some centres unmarked) [compound 6, N-(5-((4-(2-(2-((2-(2,6-dioxopiperidin-3-yl)-1-oxoisoindolin-5-yl)oxy)ethoxy)ethyl)piperazin-1-yl)methyl)-1-((1s,4s)-4-(hydroxymethyl)cyclohexyl)-1H-benzo[d]imidazol-2-yl)-3-(trifluoromethyl)benzamide]	≥ 1000	< 30	–	–	–
CC1CCC(n2c(NC(=O)c3cccc(C(F)(F)F)c3)nc3cc(CN4CCN(CCOCCOc5ccc6c(c5)C(=O)N(C5CCC(=O)NC5=O)C6=O)CC4)ccc32)CC1 (centres unmarked) [compound 7, N-(5-((4-(2-(2-((2-(2,6-dioxopiperidin-3-yl)-1,3-dioxoisoindolin-5-yl)oxy)ethoxy)ethyl)piperazin-1-yl)methyl)-1-((1s,4s)-4-methylcyclohexyl)-1H-benzo[d]imidazol-2-yl)-3-(trifluoromethyl)benzamide]	≥ 1000	100 to 300	–	–	30 to 50
O=C1CCC(N2C(=O)c3ccc(N4CCC(CN5CCN(Cc6ccc7c(c6)nc(NC(=O)c6cccc(C(F)(F)F)c6)n7[C@H]6CC[C@@H](CO)CC6)CC5)CC4)cc3C2=O)C(=O)N1 (some centres unmarked) [compound 9, N-(5-((4-((1-(2-(2,6-dioxopiperidin-3-yl)-1,3-dioxoisoindolin-5-yl)piperazin-4-yl)methyl)piperzin-1-yl)methyl)-1-((1s,4s)-4-(hydroxymethyl)cyclohexyl)-1H-benzo[d]imidazol-2-yl)-3-(trifluoromethyl)benzamide]	< 30	< 30	–	–	> 70
O=C1CCC(N2C(=O)c3ccc(OCCN4CCC(CN5CCN(Cc6ccc7c(c6)nc(NC(=O)c6cccc(C(F)(F)F)c6)n7[C@H]6CC[C@@H](CO)CC6)CC5)CC4)cc3C2=O)C(=O)N1 (some centres unmarked) [compound 10]	30 to 100	< 30	–	–	–
Cc1ccc(-n2nc(N3CCN(CCOCCOCCOc4ccc5c(c4)C(=O)N(C4CCC(=O)NC4=O)C5=O)CC3)cc2NC(=O)c2cnn3cccnc23)nc1 (centres unmarked) [compound 25, N-(3-(4-(2-(2-(2-((2-(2,6-dioxopiperidin-3-yl)-1,3-dioxoisoindolin-5-yl)oxy)ethoxy)ethoxy)ethyl)piperazin-1-yl)-1-(5-methylpyridin-2-yl)-1H-pyrazol-5-yl)pyrazolo[1,5-a]pyrimidine-3-caboxamide]	≥ 1000	30 to 100	–	–	–
Cc1ccc(-n2nc(N3CCN(CCOCCOCCOCCOc4ccc5c(c4)C(=O)N(C4CCC(=O)NC4=O)C5=O)CC3)cc2NC(=O)c2cnn3cccnc23)nc1 (centres unmarked) [compound 26, N-(3-(4-(2-(2-(2-(2-((2-(2,6-dioxopiperidin-3-yl)-1,3-dioxoisoindolin-5-yl)oxy)ethoxy)ethoxy)ethoxy)ethyl)piperazin-1-yl)-1-(5-methylpyridin-2-yl)-1H-pyrazol-5-yl)pyrazolo[1,5-a]pyrimidine-3-caboxamide]	≥ 1000	300 to 1000	–	–	–
Cc1ccc(-n2nc(N3CCN(CCOCCOCCOCC(=O)N[C@H](C(=O)N4C[C@H](O)C[C@H]4C(=O)NCc4ccc(-c5scnc5C)cc4)C(C)(C)C)CC3)cc2NC(=O)c2cnn3cccnc23)nc1 [compound 27, N-(3-(4-((S)-13-((2S,4R)-4-hydroxy-2-((4-(4-methylthiazol-5-yl)benzyl)carbamoyl)pyrrolidine-1-carbonyl)-14,14-dimethyl-11-oxo-3,6,9-trioxa-12-azapentadecyl)piperazin-1-yl)-1-(5-methylpyridin-2-yl)-1H-pyrazol-5-yl)pyrazolo[1,5-a]pyrimidine-3-carboxamide]	≥ 1000	300 to 1000	–	–	–
Cc1ccc(-n2nc(N3CCN(CCOCCOCCOCCOCC(=O)N[C@H](C(=O)N4C[C@H](O)C[C@H]4C(=O)NCc4ccc(-c5scnc5C)cc4)C(C)(C)C)CC3)cc2NC(=O)c2cnn3cccnc23)nc1 [compound 28, N-(3-(4-((S)-16-((2S,4R)-4-hydroxy-2-((4-(4-methylthiazol-5-yl)benzyl)carbamoyl)pyrrolidine-1-carbonyl)-17,17-dimethyl-14-oxo-3,6,9,12-tetraoxa-15-azapentadecyl)piperazin-1-yl)-1-(5-methylpyridin-2-yl)-1H-pyrazol-5-yl)pyrazolo[1,5-a]pyrimidine-3-carboxamide]	≥ 1000	300 to 1000	–	–	–
N#Cc1ccc2ncnc(N[C@H]3CC[C@H](N4CCN(CCOc5ccc6c(c5)C(=O)N(C5CCC(=O)NC5=O)C6=O)CC4)CC3)c2c1 (some centres unmarked) [compound 29]	≥ 1000	300 to 1000	–	–	–
N#Cc1ccc2ncnc(N[C@H]3CC[C@H](N4CCN(CCOCCOc5ccc6c(c5)C(=O)N(C5CCC(=O)NC5=O)C6=O)CC4)CC3)c2c1 (some centres unmarked) [compound 30]	≥ 1000	300 to 1000	–	–	–
N#Cc1ccc2ncnc(N[C@H]3CC[C@H](N4CCN(CCOCCOCCOc5ccc6c(c5)C(=O)N(C5CCC(=O)NC5=O)C6=O)CC4)CC3)c2c1 (some centres unmarked) [compound 31]	≥ 1000	≥ 1000	–	–	–
